Key:
[1] = test system: Spontaneously Hypertensive Rats (SHR); test: Systemic blood pressure of anesthetized Spontaneously Hypertensive Rats (i.v. bolus or p.o. intra stomach); assay type: in vivo, rat
Procedure: Spontaneously Hypertensive Rats, (Harlan USA) 290-330 gr weight, were anaesthetized with 100-120 mg/kg Inactin in one single bolus injection i.p. The chest was shaven, and animal was secured in supine position. Anaesthetized rats were subject to tracheotomy with 18G catheter. The left femoral vein was cannulated for drug administration and infusion.
For measurement of hemodynamic parameters a cannula was inserted retrogradely into the left carotid artery. The tip of the catheter was positioned close to the origin of the subclavian artery. The catheter was connected to a blood pressure measurement system (BioPac MP100 workstation, BioPac System inc.). ECG was recorded by BioPac MP100 workstation. The information was saved electronically.
During the experiment 1 ml/h of Hartmann's solution was infused i.v.
Alternatively an 80-125 mg/Kg of MCT-based formulation was injected p.o. intra stomach.

[2] = test system: Cat iris sphincter smooth muscle (SV-CISM-2) cells; test: cGMP assay (RIA) in cultured smooth muscle cells in presence of IBMX; assay type: cell-based; conditions: for cGMP formed % of control / cGMP formed: IBMX present; for cGMP formed: mean±SEM
Procedure: Cat iris sphincter smooth muscle (SV-CISM-2) cells were maintained in Dulbecco's modified Eagle medium (DMEM), supplemented with 10% fetal calf serum (FCS) and 50 μg/ml gentamicin (culture medium) as described by Ding et al. 1999. (Life Sci. Vol: 64 pp. 161-174) To initiate subculture, confluent SV-CISM-2 cells were washed with Ca^2+-Mg^2+ free Dulbecco's phosphate buffered salt solution (PBS) and treated with 0.05% trypsin in 0.5 mM EDTA for 3 minutes at 37° C. This was followed by addition of culture medium, and the cell suspension was centrifuged at 200 g for 5 minutes. The pelleted cells were suspended in culture medium and seeded in 6-well plates for the cGMP assay. Confluent cells, in 6-well plates were washed once with DMEM and incubated in 2 ml DMEM for 15 minutes at 37° C. IBMX (0.1 mM) was added and incubated for additional 10 minutes. The tested agent was then added and incubations continued for 10 minutes. Anantin (1 μM) or L-NAME (0.1 mM) were added along with IBMX, 10 minutes prior to addition of the tested compound. Reactions were stopped by replacing the medium with 1 ml ice-cold 5% trichloroacetic acid (TCA) (W/V). The obtained samples were homogenized, centrifuged and the supernatants were extracted with anhydrous diethylether. A 100 μl portion of the supernatant from each sample was taken; and after appropriate dilutions cGMP was assayed by radioimmunoassay RIA as described by the aforementioned Ding et al. 1999. Protein content was determinate by the method of Lowry with bovine serum albumin as standard as described in the aforementioned Ding et al. 1999. The data are presented as mean±SEM of three separate experiments with triplicate incubations for each data point.

Male Sprague-Dawley rats = test: Systemic blood pressure and ECG of normotensive anesthetized rats, i.v. bolus injection; assay type: in vivo
Procedure: Male Sprague-Dawley rats, weighing 250-350 grams were anaesthetized with mixture of Ketamine (90 mg/Kg body weight) and Xylazine (10 mg/Kg body weight) in a single bolus injection. The rats' chest was shaven; and the rats were secured in supine position. Anaesthetized rats were intubated with 18G catheter, connected to a ventilator [Harvard Apparatus] and ventilated with a room air (volume: 2 ml, rate: 70 per min). The left femoral vein was cannulated for drug administration, which is standardized to injections of 0.2 ml/100 grams body weight over a period of 0.5-1 minutes.
For measurement of hemodynamic parameters [blood pressure (BP), heart rate (HR)] a cannula was inserted retrogradely into the left carotid artery. The tip of the catheter was positioned close to the origin of the subclavian artery.
For continuous monitoring of blood pressure (systolic and diastolic pressure) and heart rate, the catheter was connected to a pressure transducer [Grass instrument co., Quincy, Mass. USA]. To monitor the ECG (electrocardiogram): two electrodes were connected to the animal's arms and one electrode was connected to its left leg. The monitoring system was calibrated at the beginning of each experiment. Recording all the steps of the calibration. ECG and hemodynamic parameters were recorded continuously during the whole experiment.
Monitoring rate (speed of paper) was at 5 mm/sec. At different times (stabilization, after injections, blood pressure changes, etc.,) the monitoring rate was changed to 25 mm/sec. In addition routinely, every 5 minutes the monitoring rate was changed to 25 mm/sec. for 15 sec. ECG recordings were obtained at the same times as hemodynamic measurements.
The test compound was administered by bolus injection intravenously at different doses (2,4,6,8 mg/Kg body weight). Each dose was administrated twice in the same manner. The second dose was given after the hemodynamic parameters were recovered (or stabilized) following the first injection.

[3] = test system: cultured SV40 transformed cat iris sphincter smooth muscle (SV-CISM-2); conditions: WO 01/39766, cited from earlier work; for elevation of cGMP levels in vitro: SV-CISM-2 cells; for ability to elevate cGMP levels in cultured smooth muscle cells: comparison of the two compounds
[4] = 20 mg/Kg body weight i.v. bolus
[5] = 20 mg/Kg body weight i.v. bolus, 30 minutes after injection
[6] = 4 mg/Kg body weight, single dose
[7] = 8 mg/Kg body weight i.v. bolus, 30 minutes after first injection, FIG. 1A
[8] = 8 mg/Kg body weight i.v. bolus, 30 minutes after first injection, FIG. 1B
[9] = additional (second) bolus injection 8 mg/Kg, after 30 minutes
[10] = oral administration, 80 or 125 mg/Kg

C1=COC2(CC1)CCCCO2 (stereo not shown) [1,7-dioxaspiro[5.5]undec-2-ene]
reduction in diastolic blood pressure (range) [1, 4]: 20-33% | reduction in systolic blood pressure (range) [1, 5]: 18-28% | duration of effect ([1]; 20 mg/Kg i.v. bolus): about 30 minutes | time of maximal effect after the injection ([1]; 20 mg/Kg i.v. bolus): 35 to 55 min

C1CCC2(CCCCO2)OC1 [1,7-dioxaspiro[5.5]undecane]
cGMP formed % of control ([2]; 0.1 μM & Anantin (1 μM)): 253 % of control | cGMP formed ([2]; 0.1 μM & Anantin (1 μM)): 1.32 ± 0.1 pmol/mg protein/10 min | cGMP formed % of control ([2]; 0.1 μM & L-NAME (100 μM)): 182 % of control | cGMP formed ([2]; 0.1 μM & L-NAME (100 μM)): 0.94 ± 0.15 pmol/mg protein/10 min | cGMP formed % of control ([2]; 0.1 μM): 236 % of control | cGMP formed ([2]; 0.1 μM): 1.23 ± 0.1 pmol/mg protein/10 min | increase of cGMP concentration ([2]; 0.1 μM, versus control): 2.36 times | effect on systemic blood pressure (Male Sprague-Dawley rats; 2 mg/Kg body weight, single and double dose): no effect | hypotensive effect after second injection (Male Sprague-Dawley rats; 4 mg/Kg body weight, second injection of the same dose): more pronounced | duration of hypotensive effect (Male Sprague-Dawley rats; [6]): about 15 minutes | effect on systemic blood pressure (Male Sprague-Dawley rats; [6]): mild hypotensive effect | reduction in systolic blood pressure (average) (Male Sprague-Dawley rats; [7]): 18.1% | reduction in systolic blood pressure (range) (Male Sprague-Dawley rats; [7]): 10-30% | reduction in diastolic blood pressure (average) (Male Sprague-Dawley rats; [8]): 20.5% | reduction in diastolic blood pressure (range) (Male Sprague-Dawley rats; [8]): 7-32% | reduction in diastolic blood pressure (average) (Male Sprague-Dawley rats; [9]): 36.5% | reduction in diastolic blood pressure (range) (Male Sprague-Dawley rats; [9]): 15-53% | reduction in systolic blood pressure (average) (Male Sprague-Dawley rats; [9]): 28.3% | reduction in systolic blood pressure (range) (Male Sprague-Dawley rats; [9]): 15-42% | effect on heart contractility (ECG monitoring) (Male Sprague-Dawley rats; single and double dosage of 2-8 mg/Kg body weight i.v. bolus): no effect | reduction in diastolic blood pressure (range) [1, 4]: 15-28% | reduction in systolic blood pressure (range) [1, 5]: 20-30% | duration of effect ([1]; 20 mg/Kg i.v. bolus): ≥ 90 min | time of maximal effect after the injection ([1]; 20 mg/Kg i.v. bolus): 110 to 120 min | reduction in systolic blood pressure (range) ([1]; oral administration, 80 mg/Kg body weight, after 150 minutes): 15-28% | reduction in systolic blood pressure (range) ([1]; oral administration, 80 mg/Kg, after 150 minutes, stated under FIG. 5B (diastolic blood pressure)): 20-30% | reduction in systolic blood pressure (range) ([1]; oral administration, 125 mg/Kg, 150 minutes post injection): 30-45% | reduction in systolic blood pressure (range) ([1]; oral administration, 125 mg/Kg, after 150 minutes, stated under FIG. 5B (diastolic blood pressure)): 40-53% | duration of effect [1, 10]: about an hour | time of maximal effect after the injection [1, 10]: 150 to 220 min | elevation of cGMP levels in vitro [3]: elevate cGMP levels | ability to elevate cGMP levels in cultured smooth muscle cells [3]: comparable ability to elevate cGMP levels

C/C=C/C=C/CCCCCCCO [E,E-8,10-Dodecadienol]
elevation of cGMP levels in vitro [3]: elevate cGMP levels

COC(=O)[C@@H](N)CCCNC(=N)N[N+](=O)[O-] [L-NAME, N^G-nitro-L-arginine methyl ester, reference compound]
effect on 1,7-dioxaspiro[5.5]undecane-stimulated cGMP formation ([2]; tested together with 1,7-dioxaspiro[5.5]undecane 0.1 μM, Anantin 1 μM, L-NAME 100 μM): attenuated

CCCCCC/C=C\CCCCCC=O [Z-7-Tetradecenal]
elevation of cGMP levels in vitro [3]: elevate cGMP levels

CCCC/C=C\CCCCCCCCCCOC(C)=O [Z-11-Hexadecenyl-Acetate]
elevation of cGMP levels in vitro [3]: elevate cGMP levels

CCCC/C=C\CCCCCCCCCCCC=O [Z-13-octadecenal, reference compound]
effect on blood pressure (Male Sprague-Dawley rats; 4 mg/Kg body weight bolus, two animals, single and double dose): no reduction | effect on blood pressure (Male Sprague-Dawley rats; 8 mg/Kg body weight bolus injection, five animals, FIG. 2): uncontrolled reduction in blood pressure in three out of five animals tested | response of systemic blood pressure in the two surviving animals (Male Sprague-Dawley rats; 8 mg/Kg body weight, both injections): minimal or no response | toxicity of intravenous administration (mortality) (Male Sprague-Dawley rats; intravenous administration, five animals): death of three out of five animals tested | elevation of cGMP levels in vitro [3]: elevate cGMP levels | ability to elevate cGMP levels in cultured smooth muscle cells [3]: comparable ability to elevate cGMP levels

Reference: patent US20050272808A1, “Compositions and methods for the treatment of hypertension” (priority 2004, published 2005)
